Where a SMILES comes first, the peptide text is derived from it. Bridges are numbered along the chain shown (N, C = ends).

The IC50 is the concentration needed to halve the response being measured.

This experiment deals with T1, recombinant human VEGF165 (Homo sapiens, UniProt P15692).
T1 sequence (P15692 27-191 isoform P15692-4): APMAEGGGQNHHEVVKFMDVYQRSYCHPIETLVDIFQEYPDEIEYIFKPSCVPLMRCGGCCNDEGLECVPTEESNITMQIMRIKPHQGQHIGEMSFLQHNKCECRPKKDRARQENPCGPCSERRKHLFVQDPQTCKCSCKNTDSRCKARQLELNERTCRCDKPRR
The experiment is described as follows: VEGF peptide binding assay (competition ELISA, VEGF165 binding to coated VEGFR2/Fc). The procedure: High-binding half-well 96-well plates (Costar #3690) were coated with recombinant human VEGFR2/Fc (50 ng/well) in 50 μl PBS, and incubated at 4° C. overnight. After washing the plates three times with 1× washing buffer (KPL Cat#50-65-00) and blocking with Superblock (Scytek #AAA500) at room temperature (RT) for 1 hour, VEGF-peptides of the invention were serially diluted (concentrations: 0.128-10,000 nM) in the presence of 25 ng/ml of recombinant human VEGF165 in […] Superblock, and were then added to the 96-well plates and incubated at RT for 1 hour. Peptides of the invention tested in this fashion were all capped at the amino terminus with a C(O)CH3 group and at the carboxyl terminus with a NH2 group. The plates were then washed three times with washing buffer, and a diluted (1:500) biotinylated anti-human VEGF antibody (R&D systems, Cat# BAF293) was added and incubated at RT for 2 hours. After washing the plates, streptavidin HRP conjugate (1:200 in Superblock) (R&D systems, Cat# DY998) was added to detect the bound anti-VEGF antibody, followed by addition of tetramethylbenzidine (TMB) substrate (Pierce, Cat#34021) for color development. The reaction was stopped with 2 M H2SO4. OD450 was measured using SpectraMax (Molecular Device) with a correction wavelength of 540 nm. The data were analyzed using Prism software. OD450 values were plotted as a function of the concentrations of the VEGF peptides. IC50 values, indicative of the potency of the VEGF peptides to inhibit VEGF-VEGFR2 interaction, were obtained using a sigmoid dose-response curve fit in Prism.
(ELISA stands for enzyme-linked immunosorbent assay.)
As for `CC[C@H](C)[C@@H]1NC(=O)[C@H](CC(=O)O)NC(=O)[C@@H](NC(=O)[C@H](CC(N)=O)NC(=O)[C@@H]2CCCN2C(=O)[C@H](CCC(=O)O)NC(=O)[C@@H](NC(C)=O)C(C)C)CSSC[C@@H](C(=O)N[C@@H](Cc2ccccc2)C(=O)N[C@@H](CCC(=O)O)C(=O)N[C@@H](CCCNC(=N)N)C(=O)N[C@@H](CC(C)C)C(=O)N[C@@H](CCSC)C(=O)N[C@@H](CCCCN)C(N)=O)NC(=O)[C@H](C(C)C)NC(=O)[C@H](Cc2c[nH]c3ccccc23)NC(=O)[C@H](C(C)C)NC(=O)[C@H](Cc2c[nH]c3ccccc23)NC(=O)[C@H](CCSC)NC(=O)[C@H](C(C)C)NC(=O)[C@H](Cc2c[nH]cn2)NC1=O` [Compound 38, VEPNCDIHVMWVWVCFERLMK] (Ac-VEPNCDIHVMWVWVCFERLMK-NH2; disulfide 5-15 (inferred)), the concentration for half-maximal inhibition (IC50) was determined as 92.6 nM. As for `CC[C@H](C)[C@@H]1NC(=O)[C@H](CC(=O)O)NC(=O)[C@@H](NC(=O)[C@H](CC(N)=O)NC(=O)[C@@H]2CCCN2C(=O)[C@H](CCC(=O)O)NC(=O)[C@@H](NC(C)=O)C(C)C)CSSC[C@@H](C(=O)N[C@@H](Cc2ccccc2)C(=O)N[C@@H](CCC(=O)O)C(=O)N[C@@H](CCCNC(=N)N)C(=O)N[C@@H](CC(C)C)C(=O)N[C@@H](Cc2ccc(O)cc2)C(=O)N[C@@H](CCCNC(=N)N)C(=O)N[C@@H](CCC(=O)O)C(=O)N[C@@H](CC(C)C)C(N)=O)NC(=O)[C@H](CCC(=O)O)NC(=O)[C@H](Cc2c[nH]c3ccccc23)NC(=O)[C@H](C(C)C)NC(=O)[C@H](Cc2c[nH]c3ccccc23)NC(=O)[C@H](CCSC)NC(=O)[C@H](C(C)C)NC(=O)[C@H](Cc2c[nH]cn2)NC1=O` [Compound 39, VEPNCDIHVMWVWECFERLYREL] (Ac-VEPNCDIHVMWVWECFERLYREL-NH2; disulfide 5-15 (inferred)), the figure is 70 nM.

Take `CC[C@H](C)[C@H](NC(=O)CNC(=O)[C@H](Cc1ccc(O)cc1)NC(=O)[C@H](CC(C)C)NC(=O)[C@H](CCCNC(=N)N)NC(=O)[C@H](CCC(=O)O)NC(=O)[C@H](Cc1ccccc1)NC(=O)[C@@H]1CSSC[C@H](NC(=O)[C@H](CC(N)=O)NC(=O)[C@@H]2CCCN2C(=O)[C@H](CCC(=O)O)NC(=O)[C@@H](NC(C)=O)C(C)C)C(=O)N[C@@H](CC(=O)O)C(=O)N[C@@H]([C@@H](C)CC)C(=O)N[C@@H](Cc2c[nH]cn2)C(=O)N[C@@H](C(C)C)C(=O)N[C@@H](CCSC)C(=O)N[C@@H](Cc2c[nH]c3ccccc23)C(=O)N[C@@H](C(C)C)C(=O)N[C@@H](Cc2c[nH]c3ccccc23)C(=O)N[C@@H](CCC(=O)O)C(=O)N1)C(=O)N[C@@H](Cc1ccccc1)C(N)=O` [Compound 40, VEPNCDIHVMWVWECFERLYGIF] (Ac-VEPNCDIHVMWVWECFERLYGIF-NH2; disulfide 5-15 (inferred)): the IC50 stood at 78.3 nM. For the molecule `CC[C@H](C)[C@@H]1NC(=O)[C@H](CC(=O)O)NC(=O)[C@@H](NC(=O)[C@H](CC(N)=O)NC(=O)[C@@H]2CCCN2C(=O)[C@H](CCC(=O)O)NC(=O)[C@@H](NC(C)=O)C(C)C)CSSC[C@@H](C(=O)N[C@@H](Cc2ccccc2)C(=O)N[C@@H](CCC(=O)O)C(=O)N[C@@H](CCCNC(=N)N)C(=O)N[C@@H](CC(C)C)C(=O)N[C@@H](Cc2ccc(O)cc2)C(N)=O)NC(=O)[C@H](CCC(=O)O)NC(=O)[C@H](Cc2c[nH]c3ccccc23)NC(=O)[C@H](C(C)C)NC(=O)[C@H](Cc2c[nH]c3ccccc23)NC(=O)[C@H](CCSC)NC(=O)[C@H](C(C)C)NC(=O)[C@H](Cc2c[nH]cn2)NC1=O` [Compound 41, VEPNCDIHVMWVWECFERLY] (Ac-VEPNCDIHVMWVWECFERLY-NH2; disulfide 5-15 (inferred)), the IC50 is 69.9 nM.

The values above are taken from patent US8937048B2, “Anti-angiogenic compounds” (Covx Technologies Ireland, Limited, priority 2008, dated 2015).
